Measured values as given in patent US20260250290A1 (BRISTOL-MYERS SQUIBB COMPANY, priority 2023, published 2026).
Structures can show the parent of a compound that is named as a salt.

Target: T1, full length SGK1 (Homo sapiens, UniProt O00141)
T1 construct: 125 μM full length SGK1 (Life Technologies Part #PR7358A); purchased Life Technologies PR7358A
T1 sequence (O00141 1-431): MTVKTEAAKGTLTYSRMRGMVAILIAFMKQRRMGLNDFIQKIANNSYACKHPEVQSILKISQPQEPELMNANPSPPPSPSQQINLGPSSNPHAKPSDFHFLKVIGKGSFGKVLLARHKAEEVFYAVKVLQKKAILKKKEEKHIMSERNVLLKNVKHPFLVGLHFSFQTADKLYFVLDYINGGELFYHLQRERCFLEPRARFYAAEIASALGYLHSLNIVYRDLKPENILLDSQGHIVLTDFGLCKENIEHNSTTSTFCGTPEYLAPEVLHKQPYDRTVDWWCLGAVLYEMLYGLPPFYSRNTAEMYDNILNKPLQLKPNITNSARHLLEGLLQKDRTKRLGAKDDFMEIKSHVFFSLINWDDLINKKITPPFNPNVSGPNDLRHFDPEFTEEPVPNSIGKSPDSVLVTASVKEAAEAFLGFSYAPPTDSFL
Assay: SGK1 inhibition Assay A (Caliper LabChip electrophoretic separation of fluorescent peptide substrate and phosphorylated product)
Format: biochemical
Details: Assay A; 20 μM ATP, 40 min incubation; read-out: SGK1 IC50

Row | Compound | IC50
1 | Nc1ncnn2c(C3=CCN(C(=O)C4CCCS(=O)(=O)C4)C3)cc(N3CCC[C@@H](NC(=O)c4ccc(Cl)s4)C3)c12 (stereo partly drawn) [Example 904, N-((3R)-1-(4-amino-7-(1-(1,1-dioxidotetrahydro-2H-thiopyran-3-carbonyl)-2,5-dihydro-1H-pyrrol-3-yl)pyrrolo[2,1-f][1,2,4]triazin-5-y1)piperidin-3-y1)-5-chlorothiophene-2-carboxamide] | 12 nM
2 | Cc1cccc(C(=O)N[C@@H]2CCCN(c3cc(-c4ccc(S(C)(=O)=O)cc4)n4ncnc(N)c34)C2)c1 [Example 23, (R)-N-(1-(4-amino-7-(4-(methylsulfonyl)phenyl)pyrrolo[2,1-f][1,2,4]triazin-5-yl)piperidin-3-yl)-3-methylbenzamide] | 11 nM
3 | CS(=O)(=O)c1ccc(-c2cc(N3CCC[C@@H](C(=O)Nc4nccs4)C3)c3c(N)ncnn23)cc1 [Example 104, (R)-1-(4-amino-7-(4-(methylsulfonyl)phenyl)pyrrolo[2,1-f][1,2,4]triazin-5-yl)-N-(thiazol-2-yl)piperidine-3-carboxamide] | 247 nM
4 | CC(=O)N1CC=C(c2cc(N3CCC[C@@H](NC(=O)c4sc5ccccc5c4OC4CN(C(=O)OC(C)(C)C)C4)C3)c3c(N)ncnn23)C1 [Example 673, tert-butyl (R)-3-((2-((1-(7-(1-acetyl-2,5-dihydro-1H-pyrrol-3-yl)-4-aminopyrrolo [2,1-f][1,2,4]triazin-5-yl)piperidin-3-yl)carbamoyl)benzo[b]thiophen-3-yl)oxy)azetidine-1-carboxylate] | 96 nM
5 | CC(=O)N1CC=C(c2cc(N3CCC[C@@H](NC(=O)c4cc(-c5ccccc5)n[nH]4)C3)c3c(N)ncnn23)C1 [Example 493, (R)-N-(1-(7-(1-acetyl-2,5-dihydro-1H-pyrrol-3-yl)-4-aminopyrrolo[2,1-f][1,2,4]triazin-5-yl)piperidin-3-yl)-3-phenyl-1H-pyrazole-5-carboxamide] | 6 nM
6 | CC(=O)N1CC=C(c2cc(N3CCC[C@@H](NC(=O)C4CC(F)(F)C4)C3)c3c(N)ncnn23)C1 [Example 711, (R)-N-(1-(7-(1-acetyl-2,5-dihydro-1H-pyrrol-3-yl)-4-aminopyrrolo[2,1-f][1,2,4]triazin-5-yl)piperidin-3-yl)-3,3-difluorocyclobutane-1-carboxamide] | 997 nM
7 | CN(C)CCOc1cc(Cl)sc1C(=O)N[C@@H]1CCCN(c2cc(C3=CCN(S(C)(=O)=O)C3)n3ncnc(N)c23)C1 [Example 141, (R)—N-(1-(4-amino-7-(1-(methylsulfonyl)-2,5-dihydro-1H-pyrrol-3-yl)pyrrolo[2,1-f][1,2,4]triazin-5-yl)piperidin-3-yl)-5-chloro-3-(2-(dimethylamino)ethoxy)thiophene-2-carboxamide, TFA] | 3 nM
8 | CC(=O)N1CC=C(c2cc(N3CCC[C@@H](NC(=O)c4ccnc(N5CCN(C)CC5)n4)C3)c3c(N)ncnn23)C1 [Example 741] | 3 nM
9 | Nc1ncnn2c(-c3cc(F)c(O)c(F)c3)cc(N3CCC[C@@H](NC(=O)c4ccc(Cl)s4)C3)c12 [Example 206, (R)-N-(1-(4-amino-7-(3,5-difluoro-4-hydroxyphenyl)pyrrolo [2,1-f][1,2,4]triazin-5-yl)piperidin-3-yl)-5-chlorothiophene-2-carboxamide] | 12 nM
10 | Nc1ncnn2c(-c3ccc(OC(F)F)nc3)cc(N3CCC[C@@H](NC(=O)c4ccc(C(F)F)s4)C3)c12 [Example 528, (R)-N-(1-(4-amino-7-(6-(difluoromethoxy)pyridin-3-yl)pyrrolo[2,1-f][1,2,4]triazin-5-yl)piperidin-3-yl)-5-(difluoromethyl)thiophene-2-carboxamide] | 139 nM
11 | COC(=O)N1CC=C(c2cc(N3CCC[C@@H](NC(=O)c4sc(Cl)cc4OCC4CCNCC4)C3)c3c(N)ncnn23)C1 [Example 571, Methyl (R)-3-(4-amino-5-(3-(5-chloro-3-(piperidin-4-ylmethoxy)thiophene-2-carboxamido)piperidin-1-yl)pyrrolo[2,1-f][1,2,4]triazin-7-yl)-2,5-dihydro-1H-pyrrole-1-carboxylate] | 8 nM
12 | COC(=O)N1CC=C(c2cc(N3CCC[C@@H](NC(=O)c4sc(Cl)cc4OC4CCN(CC(C)(C)O)CC4)C3)c3c(N)ncnn23)C1 [Example 619, Methyl (R)-3-(4-amino-5-(3-(5-chloro-3-((1-(2-hydroxy-2-methylpropyl)piperidin-4-yl)oxy)thiophene-2-carboxamido)piperidin-1-yl)pyrrolo[2,1-f][1,2,4]triazin-7-yl)-2,5-dihydro-1H-pyrrole-1-carboxylate] | 11 nM

Further lines, results first:

Row | IC50 | Compound
13 | 23 nM | CS(=O)(=O)N1CC=C(c2cc(N3CCC[C@@H](NC(=O)c4ccccc4)C3)c3c(N)ncnn23)C1 [Example 113, (R)—N-(1-(4-amino-7-(1-(methylsulfonyl)-2,5-dihydro-1H-pyrrol-3-yl)pyrrolo[2,1-f][1,2,4]triazin-5-yl)piperidin-3-yl)benzamide, TFA]
14 | 2 nM | COC(=O)N1CC=C(c2cc(N3CCC[C@@H](NC(=O)c4sc(Cl)cc4OC4CCNCC4)C3)c3c(N)ncnn23)C1 [Example 561]
15 | 23 nM | CC(=O)N1CC=C(c2cc(N3CCC[C@@H](NC(=O)c4cccc(OCC5CN(C)C5)n4)C3)c3c(N)ncnn23)C1 [Example 733, (R)-N-(1-(7-(1-acetyl-2,5-dihydro-1H-pyrrol-3-yl)-4-aminopyrrolo[2,1-f][1,2,4]triazin-5-yl)piperidin-3-yl)-6-((1-methylazetidin-3-yl)methoxy)picolinamide]
16 | 8 nM | CC(=O)NCCOc1cc(C(F)F)sc1C(=O)N[C@@H]1CCCN(c2cc(-c3ccc(=O)n(CC(F)F)c3)n3ncnc(N)c23)C1 [Example 432, (R)-3-(2-acetamidoethoxy)-N-(1-(4-amino-7-(1-(2,2-difluoro-ethyl)-6-oxo-1,6-dihydropyri-din-3-yl)pyrrolo[2,1-f] [1,2,4]triazin-5-yl)piperidin-3-yl)-5-(difluoromethyl)thio-phene-2-carboxamide]
17 | 24 nM | CC(=O)N1CC=C(c2cc(N3CCC[C@@H](NC(=O)c4sc(C)nc4OC4CCN(C)CC4)C3)c3c(N)ncnn23)C1 [Example 357, (R)—N-(1-(7-(1-acetyl-2,5-dihydro-1H-pyrrol-3-yl)-4-aminopyrrolo[2,1-f][1,2,4]triazin-5-yl)piperidin-3-yl)-2-methyl-4-((1-methylpiperidin-4-yl)oxy)thiazole-5-carboxamide]
18 | 10 nM | COC(=O)N1CC=C(c2cc(N3CCC[C@@H](NC(=O)c4sc(C(F)F)cc4OCCN(C)C)C3)c3c(N)ncnn23)C1 [Example 303, Methyl (R)-3-(4-amino-5-(3-(5-(difluoromethyl)-3-(2-(dimethylamino)ethoxy)thiophene-2-carboxamido)piperidin-1 - yl)pyrrolo [2,1-f][1,2,4]triazin-7-yl)-2,5-dihydro-1H-pyrrole-1-carboxylate]
19 | 50 nM | CC(=O)Nc1ccc(C(=O)N[C@@H]2CCCN(c3cc(C4=CCN(C(C)=O)C4)n4ncnc(N)c34)C2)cc1 [Example 466, (R)-4-acetamido-N-(1-(7-(1-acetyl-2,5-dihydro-1H-pyrrol-3-yl)-4-aminopyrrolo[2,1-f][1,2,4]triazin-5-yl)piperidin-3-yl)benzamide]
20 | 59 nM | CC(=O)N1CC=C(c2cc(N3CCC[C@@H](NC(=O)c4ccnc(OCCN5CCN(C)CC5)c4)C3)c3c(N)ncnn23)C1 [Example 713]
